Converted amounts (≈) assume the structure as drawn. “And” between values parts separate entries of the source, which are not always exact repeats. Equal entries are not always repeated. Where two headings read alike, the source gives them in different places.
Legend:
[1] = tested on: 63 HIV isolates with reduced susceptibility to all approved protease inhibitors; type: cell-based, HIV-1; settings: for % viral strains with EC95s ≦ 200 ng/ml / % viral strains with EC95s ≦ 630 ng/ml: protein-binding adjusted EC95
Excerpt: The cross-resistance profile of PL-100 against 63 HIV isolates with reduced susceptibility to all approved protease inhibitors (P is) including atazanavir was thus tested.
The panel of 63 viral strains was selected based on the following rationale: 1) High-level loss of susceptibility to specific P is; 2) High-level loss of susceptibility to multiple P is; 3) Good representation of the primary mutations. This panel consists of resistant viruses from highly PI-experienced patients with high-level PI resistance.
The genotype of these viruses encompasses a wide variety of mutational patterns. We particularly looked for the following primary PI mutations: D30N, L33F/I, M461/L, G48V, I50L/V, V82A/F/S/T, I84V and L90M as defined by the International AIDS Society (IAS)-USA.
The dark cells indicate a […], the grey cells indicate FC values of 2.5≦FC<10 and the white cells indicate a FC value of; 0≦FC<2.5. The results of cross-resistance profile are further illustrated in the graph of FIG. 1.
In the cross-resistance profiling studies against the 63 resistant strains mentioned herein, EC95 of PL-100 was determined against each strain. The median EC95 represents the concentration required to inhibit 95% of the viral replication of 50% diverse drug-resistant HIV-1 variants tested. Table 8 illustrates the percentage of resistant strains tested with protein-binding adjusted EC95s≦200 ng/ml. The resistant strains are grouped by the number of primary mutations they have.
The EC95 of PL-100 was determined against each of the 63 resistant strains indicated herein. Table 9 illustrates the percentage of resistant strains tested with protein-binding adjusted EC95s≦630 ng/ml. The resistant strains are grouped by the number of primary mutations they have.

[2] = Effect of CYP450 inhibitors on metabolism of HIV-1 protease inhibitors in human liver microsomes; type: in vitro ADME
Procedure: The effect of CYP450 inhibitors on the metabolism of HIV-1 anti-protease was tested in human liver microsomes.

[3] = Pharmacokinetics of PL-100 and PL-461 in rats; type: in vivo, Sprague Dawley rats (Rattus norvegicus); settings: 5 mg/kg i.v., female rats
Procedure: Animal tested are Sprague Dawley rats (species Rattus norvegicus) of 6-7 weeks old at the start of dosing and were obtained from Charles River (Montreal, Canada). The study usually comprises about 6 animals per groups. […] The rats were fasted 3 h. before dosing and 3 h. after dosing. The formulations are prepared as indicated below. The solutions are stable at room temperature over a week and are covered with aluminum foil to avoid lights. […] The dosing volume for all formulations is 2 mL per kg body weight. Blood sample was collected at 15 min, 30 min, 45 min, 1 […] after the dosing. Blood samples were centrifuged to separate the plasma and separated plasma samples were placed into cryovials and frozen at -80° C. for further analysis. Plasma samples together with standards and quality control samples were treated by protein precipitation and then analyzed by HPLC-MS. […] The PK profile was obtained by administration of the test drugs; PL-100 and PL-461 in rats. […] The pharmacokinetic parameters of PL-100 and PL-461 in rats** was compared.

[4] = tested on: laboratory adapted HIV strain (NL4-3); assay: microbe, parasite or virus in culture
Procedure: Briefly, the antiviral activity of PL-100 was determined using MT4 cells infected with a laboratory adapted HIV strain (NL4-3). For comparison, seven approved protease inhibitors (PIs) were tested in parallel.
The effect of 40% human serum on the antiviral activity of PL-100 in MT4 cells infected with NL4-3 was therefore evaluated.

CYP3A4/5 = assay: Inhibition of CYP450 sub-families; type: biochemical; settings: FIG. 10
Water solubility = type: physicochemical; settings: water, pH 7.5, aqueous buffer
[5] = 63 diverse, multi-PI-resistant strains
[6] = 63 diverse, multi-PI-resistant strains, FC in IC50 vs NL-4.3
[7] = strains with 0 primary PI mutations
[8] = strains with 1 primary PI mutation
[9] = strains with 2 primary PI mutations
[10] = strains with 3 primary PI mutations
[11] = strains with 4 primary PI mutations
[12] = strains with 5-6 primary PI mutations
[13] = Sprague Dawley, rat, plasma, iv

COC(=O)N[C@H](C(=O)NCCCC[C@@H](CO)N(CC(C)C)S(=O)(=O)c1ccc(N)cc1)C(c1ccccc1)c1ccccc1 [PL-100, (1S,5S)-(1-{5-[(4-amino-benzenesulfonyl)-isobutyl-amino]-6-hydroxy-hexylcarbamoyl}-2,2-diphenyl-ethyl)-carbamic acid methyl ester]
% FC < 2.5 [1, 5]: 37% | % FC < 10 [1, 5]: 76% | % FC > 50 [1, 5]: 3% | Mean FC [1, 6]: 8.7 | Median FC [1, 6]: 3.6 | % viral strains with EC95s ≦ 200 ng/ml [1, 7]: 100% | % viral strains with EC95s ≦ 630 ng/ml [1, 7]: 100% | % viral strains with EC95s ≦ 200 ng/ml [1, 8]: 100% | % viral strains with EC95s ≦ 630 ng/ml [1, 8]: 100% | % viral strains with EC95s ≦ 200 ng/ml [1, 9]: 36% | % viral strains with EC95s ≦ 630 ng/ml [1, 9]: 82% | % viral strains with EC95s ≦ 200 ng/ml [1, 10]: 23% | % viral strains with EC95s ≦ 630 ng/ml [1, 10]: 55% | % viral strains with EC95s ≦ 200 ng/ml [1, 11]: 0% | % viral strains with EC95s ≦ 630 ng/ml [1, 11]: 29% | % viral strains with EC95s ≦ 200 ng/ml [1, 12]: 0% | % viral strains with EC95s ≦ 630 ng/ml [1, 12]: 0% | Fold change in IC50 vs. Reference ([1]; sample O3-129578, 46I/82T/84V, panel ID 11): 1.2 | Fold change in IC50 vs. Reference ([1]; sample O3-129585, 48V/54V/82A/90M, panel ID 26): 1.9 | Fold change in IC50 vs. Reference ([1]; sample O3-129586, 30N/88D/90M, panel ID 28): 1.4 | Fold change in IC50 vs. Reference ([1]; sample O3-148709 (non-B subtype), 32I/47A, panel ID 1): 1.4 | Fold change in IC50 vs. Reference ([1]; sample O3-1129583, 84V/90M, panel ID 21): 2.3 | Fold change in IC50 vs. Reference ([1]; sample O4-148712, 46I/88S, panel ID 122): 0.8 | Fold change in IC50 vs. Reference ([1]; sample O4-148712, 46I/88S, panel ID 124): 1.1 | Fold change in IC50 vs. Reference ([1]; sample O4-148713, 46I/88S, panel ID 123): 0.4 | Fold change in IC50 vs. Reference ([1]; sample O4-148716, 33F/54L/88S/90M, panel ID 10): 1.7 | Fold change in IC50 vs. Reference ([1]; sample O4-148721, 32I/46I/47V/50L, panel ID 127): 1.1 | Fold change in IC50 vs. Reference ([1]; sample O4-148725, 32I/46L/47V/84V, panel ID 53): 0.6 | Fold change in IC50 vs. Reference ([1]; sample O4-148739, 48V/54V/82A/90M, panel ID 138): 1.1 | Fold change in IC50 vs. Reference ([1]; sample O4-148742, 46L/48V/82A/84V, panel ID 94): 1.2 | Fold change in IC50 vs. Reference ([1]; sample O4-148748, 37S/41K/70E, panel ID 115): 0.9 | Fold change in IC50 vs. Reference ([1]; sample O4-148749, 37T/41K/70E, panel ID 151): 1.9 | Fold change in IC50 vs. Reference ([1]; sample O4-148751, 54V/84V, panel ID 171): 0.8 | Fold change in IC50 vs. Reference ([1]; sample O4-148752, 54V/84V, panel ID 152): 1.2 | Effect of CYP450 inhibitor on metabolism ([2]; with ketoconazole and sulfaphenazole (FIG. 6)): able to increase the PK of PL-100 | Effect of CYP450 inhibitor on metabolism ([2]; with ritonavir (FIG. 6)): most effective combination | Cl_F [3]: 58.3 mL/min/kg | Tlast [3]: 6 h | Vz_F [3]: 6.1 L/kg | λz [3]: 0.52 h⁻¹ | concentration at 6 hr ([3]; Sprague Dawley, rat, plasma, intravenous, read-out: Clast): 44 ng/mL | AUC(0-inf) [3, 13]: 1430 ng·h/mL | AUC(0-t) [3, 13]: 1370 ng·h/mL | Cmax [3, 13]: 1800 ng/mL | Tmax [3, 13]: 6 min | half-life ([3]; Sprague Dawley, rat, plasma, iv, read-out: T½ (converted)): 72 min | EC50 ([4]; Human immunodeficiency virus 1, NL43, MT4, MT4 cells infected with NL4-3): 16 nM | EC50 ([4]; Human immunodeficiency virus 1, NL43, MT4, culture condition 10% FBS): 18 nM | EC50 ([4]; Human immunodeficiency virus 1, NL43, MT4, culture condition 10% FBS + 40% human serum): 100 nM | Fold Change in EC50 ([4]; culture condition 10% FBS): 1.0 | Fold Change in EC50 ([4]; culture condition 10% FBS + 40% human serum): 6 and 5.9 | SI (CC50/EC50) ([4]; ratio of cytotoxicity (CC50) to antiviral activity (EC50)): 2,063 | Inhibition of CYP3A4/5 (CYP3A4/5): inhibits CYP3A4/5 | solubility (Water solubility): 79 µg/mL (≈ 126 µM)

From US20060287316A1, “METHOD FOR IMPROVING PHARMACOKINETICS OF PROTEASE INHIBITORS AND PROTEASE INHIBITOR PRECURSORS” (priority 2005, published 2006)
